Assay results taken from patent US20020137929A1, “1 - (3-heterocyclylphenyl) isothiourea, -isourea, -guanidine and -amidine herbicidal agents” (Intellectual Property Department, BASF Aktiengesellschaft, priority 1998, published 2002).

Experiments:
ABUTH (Velvetleaf) = assay: Postemergence herbicidal evaluation; assay type: in vivo, Abutilon theophrasti; settings: postemergence
Procedure, shortened: (§1)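 ~2-wk seedlings; postemergence spray, 40 psi; vehicle 1:1 acetone:water + 0.5% Tween 20; rate ≈0.0156–0.500 kg/ha; greenhouse hold; scored 4–5 wk after treatment, 0–9 scale vs control; repeat tests averaged.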

AMBEL (Ragweed, Common) [1] = assay: Postemergence herbicidal evaluation; assay type: in vivo, Ambrosia artemisifolia; settings: postemergence
Procedure, shortened: as §1

[2] = test system: CHEAL (Lambsquarters, Common); assay: Postemergence herbicidal evaluation; assay type: in vivo, Chenopodium album; settings: postemergence
Procedure, shortened: as §1

ECHCG (Barnyardgrass) = assay: Postemergence herbicidal evaluation; assay type: in vivo, Echinochloa crus-galli; settings: postemergence
Procedure, shortened: as §1

[3] = test system: GLXMAW (Soybean, Williams); assay: Postemergence herbicidal evaluation; assay type: in vivo, Glycine max, (L.) Merr. cv Williams; settings: postemergence
Procedure, shortened: as §1

ORYSAT (Rice, Tebonnet) = assay: Postemergence herbicidal evaluation; assay type: in vivo, Oryza sativa, (L.) Tebonnet; settings: postemergence
Procedure, shortened: as §1

ZEAMX (Corn, Field) = assay: Postemergence herbicidal evaluation; assay type: in vivo, Zea mays; settings: postemergence
Procedure, shortened: as §1

AMBEL (Ragweed, Common) [4] = assay: Preemergence herbicidal evaluation; assay type: in vivo, Ambrosia artemisifolia; settings: rated 4-5 weeks after treatment
Procedure, shortened: (§2)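 Visual 0-9 rating vs control (stand, vigor, malformation, size, chlorosis, overall appearance), scored 4-5 wk after spraying. Seeded soil cups were treated preemergence with compound in aqueous acetone, ~0.0156-0.500 kg/ha equivalent.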

CASOB (Sicklepod) = assay: Preemergence herbicidal evaluation; assay type: in vivo, Cassia obtusifolia; settings: rated 4-5 weeks after treatment
Procedure, shortened: as §2

[5] = test system: CHEAL (Lambsquarters, Common); assay: Preemergence herbicidal evaluation; assay type: in vivo, Chenopodium album; settings: rated 4-5 weeks after treatment
Procedure, shortened: as §2

GALAP (Galium) = assay: Preemergence herbicidal evaluation; assay type: in vivo, Galium aparine; settings: rated 4-5 weeks after treatment
Procedure, shortened: as §2

CYPSE (Flatsedge) [6] = assay: Preemergence weed control under flooded paddy conditions; assay type: in vivo, Cyperus serotinus; settings: rated 3-4 weeks after treatment
Procedure, shortened: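 Values are visual 0-9 scores against a control for a preemergence application into paddy flood water at about 0.0313 to 0.500 kg/ha. Greenhouse duration was three to four weeks.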

CYPIR (Rice Flatsedge) = assay: Postemergence weed control under flooded paddy conditions; assay type: in vivo, Cyperus iria; settings: postemergence weeds, rated 3 to 4 weeks after treatment
Procedure, shortened: (§3)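 Flood-water application, about 0.0313–0.500 kg/ha a.i. in aqueous/acetone 50/50 v/v; water depth 1.5–3 cm throughout. Weeds 3–5 cm, rice 1.5–2.5 leaf. Greenhouse; 0–9 visual rating vs control at 3–4 wk.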

CYPSE (Flatsedge) [7] = assay: as above; assay type: in vivo, Cyperus serotinus; settings: postemergence weeds, rated 3 to 4 weeks after treatment
Procedure, shortened: as §3

Structure (SMILES): Cn1c(C(F)(F)F)cc(=O)n(-c2cc(N=C3SCC(=O)N3[C@H](Cc3ccccc3)C(=O)O)c(Cl)cc2F)c1=O [Compound 69, α-Benzyl-2-{{2-chloro-5-[3,6-dihydro-3-methyl-2,6-dioxo-4-(trifluoromethyl)-1(2H)-pyrimidinyl]-4-fluorophenyl}imino}-4-oxo-3-thiazolidineacetic acid, D-]
- ABUTH herbicidal rating (ABUTH (Velvetleaf); rate 0.0158 kg/ha): 9.0
- ABUTH herbicidal rating (ABUTH (Velvetleaf); rate 0.0315 kg/ha): 9.0
- ABUTH herbicidal rating (ABUTH (Velvetleaf); rate 0.0630 kg/ha): 9.0
- AMBEL herbicidal rating (AMBEL (Ragweed, Common) [1]; rate 0.0158 kg/ha): 9.0
- AMBEL herbicidal rating (AMBEL (Ragweed, Common) [1]; rate 0.0315 kg/ha): 9.0
- AMBEL herbicidal rating (AMBEL (Ragweed, Common) [1]; rate 0.0630 kg/ha): 9.0
- CHEAL herbicidal rating ([2]; rate 0.0158 kg/ha): 7.0
- CHEAL herbicidal rating ([2]; rate 0.0315 kg/ha): 9.0
- ECHCG herbicidal rating (ECHCG (Barnyardgrass); rate 0.0158 kg/ha): 2.0
- ECHCG herbicidal rating (ECHCG (Barnyardgrass); rate 0.0315 kg/ha): 1.0
- ECHCG herbicidal rating (ECHCG (Barnyardgrass); rate 0.0630 kg/ha): 4.0
- GLXMAW herbicidal rating ([3]; rate 0.0158 kg/ha): 5.5
- GLXMAW herbicidal rating ([3]; rate 0.0315 kg/ha): 6.0
- GLXMAW herbicidal rating ([3]; rate 0.0630 kg/ha): 6.0
- ORYSAT herbicidal rating (ORYSAT (Rice, Tebonnet); rate 0.0158 kg/ha): 2.5
- ORYSAT herbicidal rating (ORYSAT (Rice, Tebonnet); rate 0.0315 kg/ha): 3.0
- ORYSAT herbicidal rating (ORYSAT (Rice, Tebonnet); rate 0.0630 kg/ha): 4.5
- ZEAMX herbicidal rating (ZEAMX (Corn, Field); rate 0.0158 kg/ha): 4.5
- ZEAMX herbicidal rating (ZEAMX (Corn, Field); rate 0.0315 kg/ha): 4.5
- ZEAMX herbicidal rating (ZEAMX (Corn, Field); rate 0.0630 kg/ha): 5.5
- Preemergence herbicidal rating AMBEL (AMBEL (Ragweed, Common) [4]; rate 0.0156 kg/ha): 0.0
- Preemergence herbicidal rating AMBEL (AMBEL (Ragweed, Common) [4]; rate 0.0313 kg/ha): 4.0
- Preemergence herbicidal rating AMBEL (AMBEL (Ragweed, Common) [4]; rate 0.0625 kg/ha): 5.0
- Preemergence herbicidal rating AMBEL (AMBEL (Ragweed, Common) [4]; rate 0.1250 kg/ha): 9.0
- Preemergence herbicidal rating AMBEL (AMBEL (Ragweed, Common) [4]; rate 0.2500 kg/ha): 7.0
- Preemergence herbicidal rating CASOB (CASOB (Sicklepod); rate 0.0156 kg/ha): 0.0
- Preemergence herbicidal rating CASOB (CASOB (Sicklepod); rate 0.0313 kg/ha): 0.0
- Preemergence herbicidal rating CASOB (CASOB (Sicklepod); rate 0.0625 kg/ha): 0.0
- Preemergence herbicidal rating CASOB (CASOB (Sicklepod); rate 0.1250 kg/ha): 1.0
- Preemergence herbicidal rating CASOB (CASOB (Sicklepod); rate 0.2500 kg/ha): 5.0
- Preemergence herbicidal rating CHEAL ([5]; rate 0.0156 kg/ha): 9.0
- Preemergence herbicidal rating CHEAL ([5]; rate 0.0313 kg/ha): 9.0
- Preemergence herbicidal rating CHEAL ([5]; rate 0.0625 kg/ha): 9.0
- Preemergence herbicidal rating CHEAL ([5]; rate 0.1250 kg/ha): 9.0
- Preemergence herbicidal rating CHEAL ([5]; rate 0.2500 kg/ha): 9.0
- Preemergence herbicidal rating GALAP (GALAP (Galium); rate 0.0156 kg/ha): 0.0
- Preemergence herbicidal rating GALAP (GALAP (Galium); rate 0.0313 kg/ha): 0.0
- Preemergence herbicidal rating GALAP (GALAP (Galium); rate 0.0625 kg/ha): 0.0
- Preemergence herbicidal rating GALAP (GALAP (Galium); rate 0.1250 kg/ha): 1.0
- Preemergence herbicidal rating GALAP (GALAP (Galium); rate 0.2500 kg/ha): 1.0
- CYPSE herbicidal effect rating (CYPSE (Flatsedge) [6]; 0.0313 kg/ha): 3.0
- CYPSE herbicidal effect rating (CYPSE (Flatsedge) [6]; 0.0625 kg/ha): 3.0
- CYPSE herbicidal effect rating (CYPSE (Flatsedge) [6]; 0.1250 kg/ha): 9.0
- CYPSE herbicidal effect rating (CYPSE (Flatsedge) [6]; 0.2500 kg/ha): 9.0
- Herbicidal rating CYPIR (CYPIR (Rice Flatsedge); Rate 0.0313 kg/ha): 3.0
- Herbicidal rating CYPIR (CYPIR (Rice Flatsedge); Rate 0.0625 kg/ha): 3.0
- Herbicidal rating CYPIR (CYPIR (Rice Flatsedge); Rate 0.1250 kg/ha): 3.0
- Herbicidal rating CYPIR (CYPIR (Rice Flatsedge); Rate 0.2500 kg/ha): 3.0
- Herbicidal rating CYPSE (CYPSE (Flatsedge) [7]; Rate 0.0313 kg/ha): 3.0
- Herbicidal rating CYPSE (CYPSE (Flatsedge) [7]; Rate 0.0625 kg/ha): 3.0
- Herbicidal rating CYPSE (CYPSE (Flatsedge) [7]; Rate 0.1250 kg/ha): 9.0
- Herbicidal rating CYPSE (CYPSE (Flatsedge) [7]; Rate 0.2500 kg/ha): 9.0
